Results from patent US11530186B2, “Inhibitors for the β-catenin / T-cell factor protein-protein interaction” (H. LEE MOFFITT CANCER CENTER AND RESEARCH INSTITUTE, INC., priority 2018, dated 2022).
Read-outs that look alike come from different tables or passages of the source.

Biological target: T1, β-catenin/Tcf protein-protein interaction (Homo sapiens, UniProt P35222)
T1 construct: Wild-type β-catenin (residues 138-781) were cloned into a pET-28b vector; 6×histidine (C); made in house; host or cells: E. coli BL21 DE3
T1 sequence (P35222 138-781): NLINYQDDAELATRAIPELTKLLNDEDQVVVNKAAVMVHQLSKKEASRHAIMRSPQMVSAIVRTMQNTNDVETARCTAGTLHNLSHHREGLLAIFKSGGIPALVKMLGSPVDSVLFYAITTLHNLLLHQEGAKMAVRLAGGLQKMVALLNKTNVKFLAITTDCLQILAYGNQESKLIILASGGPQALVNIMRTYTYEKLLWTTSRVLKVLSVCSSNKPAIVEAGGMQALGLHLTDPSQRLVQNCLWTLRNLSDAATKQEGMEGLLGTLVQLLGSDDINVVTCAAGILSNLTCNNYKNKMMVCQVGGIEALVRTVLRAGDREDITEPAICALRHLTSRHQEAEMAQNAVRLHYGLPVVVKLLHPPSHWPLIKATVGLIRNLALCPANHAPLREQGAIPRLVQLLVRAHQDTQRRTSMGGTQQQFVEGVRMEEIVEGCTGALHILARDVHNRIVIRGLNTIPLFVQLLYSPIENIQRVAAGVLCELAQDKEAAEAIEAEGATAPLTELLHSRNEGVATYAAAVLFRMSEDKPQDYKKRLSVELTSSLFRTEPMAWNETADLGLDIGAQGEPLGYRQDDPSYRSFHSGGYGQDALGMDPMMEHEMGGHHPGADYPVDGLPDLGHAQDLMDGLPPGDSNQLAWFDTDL
Assay: FP competitive inhibition assay
Format: binding
Procedure, shortened: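 His-tagged human β-catenin (residues 138-781, E. coli-expressed) at 10 nM with 2.5 nM fluorescein-labeled Tcf4 (7-51) in PBS-type buffer with bovine γ-globulin and 0.01% Triton X-100. Compounds added, 1.5 h at 4 °C, 1% DMSO, before fluorescence polarization read. IC50 by nonlinear fit; Ki derived from IC50.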

## O=C(O)c1ccc2c(c1)c(CCc1ccc(Cl)cc1)c(CCc1nc3ccccc3s1)n2CCc1nn[nH]n1 [Compound 27, 1-(2-(2H-tetrazol-5-yl)ethyl)-2-(2-(benzo[d]thiazol-2-yl)ethyl)-3-(4-chlorophenethyl)-1H-indole-5-carboxylic acid]
Assay 1, mean ± SD (n = 3), read-out: Ki ± SD, Assay 1
  Ki: 3.3 ± 0.64 µM
Assay 2, mean ± SD (n = 3), read-out: Ki ± SD, Assay 2
  Ki: 1.3 ± 0.38 µM
Assay 3, mean ± SD (n = 3), read-out: Ki ± SD, Assay 3
  Ki: 5.6 ± 1.8 µM
